The test system of series [1] is ZIKV. The experiment in a line: NS1 and dsRNA in ZIKV-infected brain organoids. The format is cell-based, Zika virus. Conditions: 10 μM, 69 hours, MOI 1. On the procedure:
FIG. 17 is a schematic showing the general method 20 used in Example 6. Referring to FIG. 17, following growth of the brain organoids in STEMdiff™ media 22 (4 organoids/well), the media was aspirated 24. Then, 500 μL ZIKV at the desired MOI in fresh media was added 26 and the brain organoids incubated at 37° C. for 3 hours with gentle shaking 28. The brain organoids were then washed with 2×1 mL PBS 30, and fresh media and CA or cladoniamide C (CC) added to the desired concentration 32 prior to incubation for the desired time at 37° C. 34. The supernatant was collected and frozen at −86° C. 36 prior to analysis and the brain organoids transferred to an Eppendorf with paraformaldehyde for electron microscopy 38.
FIG. 18 is a plot showing the anti-ZIKV activity of cladoniamide A (incubation with 1 μM CA for 72 hours; 2 biological replicates, each with 4 organoids/well) using four brain organoid systems. There was a greater than 4-log reduction in extracellular ZIKV titer when treated with CA. […] FIGS. 20 and 21 show plots showing the anti-ZIKV activity of CA and CC (incubation with 10 μM CA or CC for 69 hours, MOI 1; 4 technical replicates as there were 4 organoids/[…]).

Another series concerns DENV. The experiment in a line: Activity against DENV (summary statement, method not described). The format is cell-based, dengue virus.
Series [2] has as its system ZIKV. The experiment in a line: ZIKV infectivity by semisolid overlay plaque assay after pre-treatment of A549 and U87 MG cells. The format is cell-based, Zika virus. As to conditions: CD 15 μM, A549 and U87 MG cells, FIG. 3.
The test system of another series is SARS-CoV-2. The experiment in a line: SARS-CoV-2 intracellular viral RNA and nucleocapsid protein in Caco-2 cells. The format is cell-based. Conditions: Human Caco-2 cells, 3 hours pre-treatment.
The subject of series [3] is ZIKV. The experiment in a line: ZIKV viral dsRNA imaging (Cellomics ArrayScan VTI) in A549 cells. The format is cell-based, Zika virus. Conditions: 15 μM, 1 h pre-treatment, MOI 1, 48 h.
Series [4] concerns ZIKV. The experiment in a line: Secreted NS1 (sNS1) ELISA, ZIKV-infected A549 cells. The format is cell-based, Zika virus. As to conditions: 24 h pre-treatment, MOI 1.0, 2 d. As for the experimental part:
Error bars represent SD among 2 biological replicates.
Cultured A549 cells were treated with various concentrations of CA or PF-429242 for 24 h before being washed with PBS and inoculated with ZIKV (ZIKV strain VR 1843, Puerto Rico, 2015; ATCC) at MOI 1.0 for 1 h. Following the removal of the inoculum, cells were incubated in fresh media for 2 d before the supernatant was collected, clarified, and secreted NS1 protein abundance was measured by an ELISA kit (BioFront Technologies) according to the manufacturer's instructions. Curve fitting was performed in Igor Pro (WaveMetrics) using a hyperbolic fit algorithm (FIG. 4; upper and middle plots) and IC50 and TI values obtained. IC50 and TI values were also obtained for CA via plaque assay (PFU; FIG. 4, lower plot). FIG. 4 (upper plot) is an ED50 curve for the PF inhibitor based on the detection of secreted Non-Structural protein 1 (sNS1), secreted viral biomarker. sNS1 was detected using an Elisa test (commercially available). FIG. 4 (middle plot) is an ED50 curve for CA based on the detection of secreted Non-Structural protein 1 (sNS1), secreted viral biomarker. sNS1 was detected using an Elisa test (commercially available).
A general note: In an ELISA, binding on a coated surface is turned into a signal by an enzyme label.

The subject of the next series is A549 cells. The experiment in a line: MTS cytotoxicity assay in A549 cells. The format is cell-based, human. As to conditions: 48 h. As for the experimental part:
An MTS assay was performed to determine the cytotoxicity concentration 50% (CC50) of cladoniamide A (CA) in human A549 cells, a cell line from human lung carcinoma. Various concentrations of CA were added to cultured A549 cells and incubated (37° C., 5% CO2) for 48 h. Cell viability was then measured by an MTS assay kit (CellTiter 96™ Aqueous One Solution cell proliferation assay, Promega) according to the manufacturer's instructions. Curve fitting was performed in Igor Pro (WaveMetrics) using a hyperbolic fit algorithm (FIG. 1). The CC50 of CA in A549 cells was determined to be 54±5 μM. An MTS assay was also performed to determine the CC50 of CA in human U87 MG cells, a cell line from human brain. Various concentrations of CA were added to cultured U87 MG cells and incubated (37° C., 5% CO2) for 48 h. Cell viability was then measured by an MTS assay kit (CellTiter 96 Aqueous One Solution cell proliferation assay, Promega) according to the manufacturer's instructions. Curve fitting was performed in Igor Pro (WaveMetrics) using a hyperbolic fit algorithm (FIG. 2).
(Tetrazolium dyes change colour on reduction, which living cells bring about.)

Take `COc1c2n(c3ccccc13)[C@]1(O)C(=O)N(C)C(=O)[C@]1(O)c1c-2[nH]c2ccccc12` [CC, (11S,15R)-11,15-dihydroxy-23-methoxy-13-methyl-3,13,16-triazahexacyclo[14.7.0.0^2,10.0^4,9.0^11,15.0^17,22]tricosa-1(23),2(10),4,6,8,17,19,21-octaene-12,14-dione]: the “anti-ZIKV activity in brain organoids (NS1, dsRNA)” value in the series on ZIKV [1] is listed as “showed anti-ZIKV activity”. Consider `CNC(=O)[C@]1(O)C(=O)c2c([nH]c3ccc(Cl)cc23)-c2c(OC)c3ccccc3n21` [CD, (12R)-7-chloro-12-hydroxy-20-methoxy-N-methyl-11-oxo-3,13-diazapentacyclo[11.7.0.0^2,10.0^4,9.0^14,19]icosa-1(20),2(10),4(9),5,7,14,16,18-octaene-12-carboxamide], for which the “activity against DENV” value in the series with DENV is “no activity”. Besides, the “inhibitory effect on production of infectious ZIKV virions” value in the series on ZIKV [2] is reported as “did not show any inhibitory effect”. Moreover, the “antiviral effect against SARS-CoV-2” value with SARS-CoV-2 is reported as “no antiviral effect”. Besides, the “activity against ZIKV (viral dsRNA)” value in the series on ZIKV [3] is given as “did not show any inhibitory effect”. For the compound `CNC(=O)[C@]1(O)C(=O)c2c([nH]c3ccc(Cl)cc23)-c2c(OC)c3cc(Cl)ccc3n21` [CE, (12R)-7,17-dichloro-12-hydroxy-20-methoxy-N-methyl-11-oxo-3,13-diazapentacyclo[11.7.0.0^2,10.0^4,9.0^14,19]icosa-1(20),2(10),4(9),5,7,14(19),15,17-octaene-12-carboxamide], the “activity against ZIKV (viral dsRNA)” value in the series with ZIKV [3] is on record as “did not show any inhibitory effect”. Same read-out and setting: then `CNC(=O)[C@@]1(O)C(=O)n2c(c(OC)c3ccccc32)-c2[nH]c3ccc(Cl)cc3c21` [CF, (11R)-7-chloro-11-hydroxy-20-methoxy-N-methyl-12-oxo-3,13-diazapentacyclo[11.7.0.0^2,10.0^4,9.0^14,19]icosa-1(20),2(10),4(9),5,7,14,16,18-octaene-11-carboxamide], with “did not show any inhibitory effect”. Turning to `CCN(CC)Cc1ccc(C(=O)N(CCc2ccccc2OC)[C@@H]2CCNC2)cc1` [PF, PF-429242, reference compound], the IC50 in the series with ZIKV [4] was found to be 13 µM. Further, in the series with A549 cells, the CC50 was 69 µM.

Usually IC50 stands for the concentration that gives 50% inhibition. Usually CC50 stands for the concentration giving 50% cytotoxicity.
